Assay results published in patent US10221163B2 (priority 2015, dated 2019).
Where a name gives a salt, the structure may show the parent alone. Read-outs that look alike come from different tables or passages of the source.

Columns and labels:
[1] = tested on: Pseudomonas aeruginosa efflux− (MB9799), IMP-1; format: cell-based; details: C, D serine β-lactamase inhibitor closely related to relebactam; for P. aeruginosa expressing IMP-1, efflux − (MB9799) MITC95: concentration restoring susceptibility to imipenem at 2 μg/mL in the presence of a class A; for Concentration of metallo-β-lactamase inhibitor which restores susceptibility of efflux − (MB9799) strain to imipenem: imipenem at 2 μg/mL, in the presence of a class A
Method in brief: (§1)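 PAO1 pair, broth microdilution; fixed β-lactam (imipenem/ceftazidime) at ~CLSI breakpoint + fixed class A/C BLI for AmpC; serial MBLi titration; endpoint = MBLi conc. restoring susceptibility; MB9798:MB9799 ratio = efflux liability.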

[2] = molecular target: VIM-1 (Pseudomonas aeruginosa (strain ATCC 15692 / DSM 22644 / CIP 104116 / JCM 14847 / LMG 12228 / 1C / PRS 101 / PAO1), UniProt A0A0F7KYQ8); assay: biochemical; details: CCF2-FA substrate, 30 pM enzyme, 2 hours at 25° C.
Method in brief: (§2)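 IC50 values derive from 4-parameter fits of percent inhibition against inhibitor concentration on semi-log axes. Activity was monitored by fluorescence with the CCF2-FA substrate after a 2-hour, 25° C incubation of compound, enzyme and substrate.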

[3] = tested on: Pseudomonas aeruginosa efflux+ (MB9798), IMP-1; format: cell-based; parameters: Concentration of metallo-β-lactamase inhibitor which restores susceptibility of efflux + (MB9798) strain to imipenem: unit not given here; details: C, D serine β-lactamase inhibitor closely related to relebactam; for P. aeruginosa expressing IMP-1, efflux + (MB9798) MITC95: concentration restoring susceptibility to imipenem at 2 μg/mL in the presence of a class A; for Concentration of metallo-β-lactamase inhibitor which restores susceptibility of efflux + (MB9798) strain to imipenem: imipenem at 2 μg/mL, in the presence of a class A
Method in brief: as §1

[4] = tested on: Escherichia coli expressing NDM-1 (CLB30005, CLB30016); format: cell-based; details: NDM-1 strain, with imipenem 1 μg/ml, 95% inhibition of growth
Method in brief: (§3)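 Clinical strains grown overnight on blood agar at 35°C, colonies suspended in saline, diluted 1:100 into 1.1×CAMHB. Test compound titrated with imipenem at 1 μg/ml; incubated 22–24 h at 35°C, growth read by absorbance.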

[5] = tested on: Serratia marcescens expressing IMP-1 (CL5741); format: cell-based; details: IMP-1 strain CL5741, with imipenem 1 μg/ml, 95% inhibition of growth
Method in brief: as §3

[6] = tested on: Klebsiella pneumoniae expressing VIM-1 (IHMA599644); format: cell-based; details: VIM-1 strain IHMA599644, with imipenem 1 μg/ml, 95% inhibition of growth
Method in brief: as §3

[7] = molecular target: IMP-1 (Serratia marcescens, UniProt P52699); assay: biochemical; format: biochemical; details: fluorescence assay, CCF2-FA substrate, 2 pM enzyme, 2 hours at 25° C., read-out: IMP-1 IC50
Chain of IMP-1 (P52699 whole entry, looked up, species assumed): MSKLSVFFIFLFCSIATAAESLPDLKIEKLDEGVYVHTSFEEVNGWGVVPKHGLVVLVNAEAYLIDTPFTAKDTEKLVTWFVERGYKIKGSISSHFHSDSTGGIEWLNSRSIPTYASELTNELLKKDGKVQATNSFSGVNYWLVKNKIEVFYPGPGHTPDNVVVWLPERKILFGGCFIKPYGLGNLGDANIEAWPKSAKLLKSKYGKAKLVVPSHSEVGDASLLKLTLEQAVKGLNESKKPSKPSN
Method in brief: as §2

[8] = molecular target: NDM-1 (Klebsiella pneumoniae, UniProt C7C422); assay: biochemical; format: biochemical; details: fluorescence assay, CCF2-FA substrate, 1 pM enzyme, 2 hours at 25° C., read-out: NDM-1 IC50
Chain of NDM-1 (C7C422 whole entry, looked up, species assumed): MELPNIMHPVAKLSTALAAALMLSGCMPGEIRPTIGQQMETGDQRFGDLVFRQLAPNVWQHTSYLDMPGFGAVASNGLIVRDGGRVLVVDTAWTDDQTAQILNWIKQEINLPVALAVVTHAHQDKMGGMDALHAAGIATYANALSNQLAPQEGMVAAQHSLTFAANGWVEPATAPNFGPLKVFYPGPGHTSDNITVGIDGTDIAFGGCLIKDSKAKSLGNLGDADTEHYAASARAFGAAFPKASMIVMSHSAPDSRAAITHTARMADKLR
Method in brief: as §2

[9] = tested on: Pseudomonas aeruginosa MB9798 vs MB9799
Source text: The strain background was Pseudomonas aeruginosa PAO1.
The strain set was then used as a pair to determine the effect of metallo-β-lactamase inhibitors of Formula I on the MIC of imipenem and/or ceftazidime. A fixed concentration of antibiotic was included in standard microbroth MIC tests, usually at the CLSI (Clinical and Laboratory Standards Institute) breakpoint concentration. A fixed amount of a class A/C beta-lactamase inhibitor was also included to inhibit the resident Pseudomonas AmpC enzyme. A serial titration of the metallo-β-lactamase inhibitor was included and the concentration of metallo-β-lactamase inhibitor which restores susceptibility of the strain to the included antibiotic was recorded. That concentration of metallo-β-lactamase inhibitor was then compared between the two strains to determine the fold difference between the efflux+ (MB9798) and efflux− (MB9799) strains. This was taken as an indication of the extent to which the MBLi is subject to efflux.

[10] = ratio MITC95 PA_9798/MITC95 PA_9799
[11] = fluorescence assay, read-out: VIM-1 IC50
[12] = fold difference between efflux+ (MB9798) and efflux− (MB9799) strains, imipenem at 2 μg/mL

## Nc1nc2c(-c3ccc(S(=O)(=O)NC4CNC[C@H]4N)c(S(N)(=O)=O)c3-c3nn[nH]n3)cccc2[nH]1 (stereo in doubt) [Example 322, 4-(2-Amino-1H-benzo[d]imidazol-4-yl)-N1-((3S,4R)-4-aminopyrrolidin-3-yl)-3-(2H-tetrazol-5-yl)benzene-1,2-disulfonamide]
[1]
  P. aeruginosa expressing IMP-1, efflux − (MB9799) MITC95: 0.7813 µM
[2]; VIM-1 IC50, fluorescence assay
  IC50: 0.182 nM
[3]
  P. aeruginosa expressing IMP-1, efflux + (MB9798) MITC95: 0.651 µM
[4]
  Escherichia coli MITC95: 0.5208 µM
[5]
  Serratia marcescens MITC95: 1.042 µM
[6]
  Klebsiella pneumoniae MITC95: 1.302 µM
[7]
  IC50: 0.738 nM
[8]
  IC50: 0.0536 nM
[9]; [10]
  Efflux ratio: 0.83

## NCCNS(=O)(=O)c1ccc(-c2cccc(C(=O)NCC(O)CN)c2)c(-c2nn[nH]n2)c1S(N)(=O)=O (stereo in doubt) [Example 347, (S)—N-(3-amino-2-hydroxypropyl)-4′-(N-(2-aminoethyl)sulfamoyl)-3′-sulfamoyl-2′-(2H-tetrazol-5-yl)[1,1′-biphenyl]-3-carboxamide]
[1]
  P. aeruginosa expressing IMP-1, efflux − (MB9799) MITC95: 0.7813 µM
[2]; VIM-1 IC50, fluorescence assay
  IC50: 0.536 nM
[3]
  P. aeruginosa expressing IMP-1, efflux + (MB9798) MITC95: 1.563 µM
[4]
  Escherichia coli MITC95: 1.563 µM
[5]
  Serratia marcescens MITC95: 1.563 µM
[6]
  Klebsiella pneumoniae MITC95: 1.563 µM
[7]
  IC50: 3.97 nM
[8]
  IC50: 2.04 nM
[9]; [10]
  Efflux ratio: 2.00

## NCC1(NS(=O)(=O)c2ccc(-c3ccc(N)nc3)c(-c3nn[nH]n3)c2S(N)(=O)=O)CCNC1 (stereo in doubt) [Example 486, (R)-N1-(3-(aminomethyl)pyrrolidin-3-yl)-4-(6-aminopyridin-3-yl)-3-(2H-tetrazol-5-yl)benzene-1,2-disulfonamide dihydrochloride]
[1]; dihydrochloride
  Concentration of metallo-β-lactamase inhibitor which restores susceptibility of efflux − (MB9799) strain to imipenem: 0.7813
[2]; VIM-1 IC50, fluorescence assay
  IC50: 0.321 nM
[3]
  Concentration of metallo-β-lactamase inhibitor which restores susceptibility of efflux + (MB9798) strain to imipenem: 1.563
[4]; dihydrochloride
  Escherichia coli MITC95: 0.7813 µM
[5]
  Serratia marcescens MITC95: 0.7813 µM
[6]
  Klebsiella pneumoniae MITC95: 1.563 µM
[7]; dihydrochloride
  IC50: 0.422 nM
[8]; dihydrochloride
  IC50: 0.176 nM
[9]; fold difference between efflux+ (MB9798) and efflux− (MB9799) strains, imipenem at 2 μg/mL, dihydrochloride
  Efflux ratio: 2.00

## NCCNC(=O)c1cc(Cl)cc(-c2ccc(S(=O)(=O)N[C@@H]3CCNC3)c(S(N)(=O)=O)c2-c2nn[nH]n2)c1N [Example 450]
[1]
  Concentration of metallo-β-lactamase inhibitor which restores susceptibility of efflux − (MB9799) strain to imipenem: 0.7813
[2]; [11]
  IC50: 0.276 nM
[3]
  Concentration of metallo-β-lactamase inhibitor which restores susceptibility of efflux + (MB9798) strain to imipenem: 1.563
[4]
  Escherichia coli MITC95: 1.563 µM
[5]
  Serratia marcescens MITC95: 1.563 µM
[6]
  Klebsiella pneumoniae MITC95: 1.563 µM
[9]; [12]
  Efflux ratio: 2.00

## CNc1nc2c(-c3ccc(S(=O)(=O)NCCN)c(S(N)(=O)=O)c3-c3nn[nH]n3)cccc2[nH]1 [Example 467, N1-(2-aminoethyl)-4-(2-(methylamino)-1H-benzo[d]imidazol-4-yl)-3-(2H-tetrazol-5-yl)benzene-1,2-disulfonamide]
[1]
  Concentration of metallo-β-lactamase inhibitor which restores susceptibility of efflux − (MB9799) strain to imipenem: 0.7813
[2]; [11]
  IC50: 0.12 nM
[3]
  Concentration of metallo-β-lactamase inhibitor which restores susceptibility of efflux + (MB9798) strain to imipenem: 0.3906
[4]
  Escherichia coli MITC95: 0.7813 µM
[5]
  Serratia marcescens MITC95: 0.7813 µM
[6]
  Klebsiella pneumoniae MITC95: 1.563 µM
[9]; [12]
  Efflux ratio: 0.50
